According to patent US10208071B2, “Use of agonists of formyl peptide receptor 2 for treating ocular inflammatory diseases” (Allergan, Inc., priority 2013, dated 2019):

Target: FPR2 (Homo sapiens (Human), UniProt P25090)
Test: FLIPR Ca+2 response, HEK-Gα16 cells stably expressing the human FPR2 receptor (Table 4)
Type: cell-based
Settings: for FPR2 (efficacy): efficacy in parentheses
Method: FLIPR: HEK-Gα16 cells stably expressing the human FPR2 receptor was utilized. Cells were plated into 384-well poly-D-lysine coated plates at a density of 18,000 cells per well one day prior to use. The growth media was DMEM medium supplemented with 10% fetal bovine serum (FBS), 1% antibiotic-antimycotic, 50 μg/ml hygromycin, and 400 μg/ml geneticin. On the day of the experiment, the cells were washed twice with Hank's Balanced Salt Solution supplemented with 20 mM HEPES (HBSS/hepes buffer). The cells were then dye loaded with 2 μM Fluo-4 diluted in the HBSS/Hepes buffer and incubated at 37° C. for 40 minutes. Extracellular dye was removed by washing the cell plates four times prior to placing the plates in the FLIPR (Fluorometric Imaging Plate Reader, Molecular Devices). Ligands were diluted in HBSS/Hepes buffer and prepared in 384-well microplates. Data for Ca^+2 responses were obtained in relative fluorescence units.

Sequence of FPR2 (P25090 whole entry): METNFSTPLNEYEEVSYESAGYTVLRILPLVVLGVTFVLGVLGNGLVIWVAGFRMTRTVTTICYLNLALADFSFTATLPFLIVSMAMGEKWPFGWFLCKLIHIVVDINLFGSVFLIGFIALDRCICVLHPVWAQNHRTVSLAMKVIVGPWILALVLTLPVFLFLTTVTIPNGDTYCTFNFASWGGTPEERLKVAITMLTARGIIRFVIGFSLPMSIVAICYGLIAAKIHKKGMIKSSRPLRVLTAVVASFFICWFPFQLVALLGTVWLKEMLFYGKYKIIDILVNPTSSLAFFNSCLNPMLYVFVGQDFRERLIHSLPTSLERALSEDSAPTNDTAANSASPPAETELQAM

SMILES | FPR2 (efficacy) | EC50 [nM]
CC1(CCc2ccccc2)NC(=O)N(NC(=O)Nc2ccc(Br)cc2)C1=O (centres unmarked) [Compound 54, 1-(4-bromophenyl)-3-[4-methyl-2,5-dioxo-4-(2-phenylethyl)imidazolidin-1-yl]urea] | nM (0.87) | –
CC1(CCc2ccc(O)c(F)c2)NC(=O)N(NC(=O)Nc2ccc(Br)cc2)C1=O (centres unmarked) [Compound 99, 1-(4-bromophenyl)-3-{4-[2-(3-fluoro-4-hydroxyphenyl)ethyl]-4-methyl-2,5-dioxoimidazolidin-1-yl}urea] | nM (1.0) | 8
CCOP(=O)(O)CNC(=O)[C@@H](NC(=O)Nc1ccc(Br)cc1)[C@@H](C)CC [Compound 115, ethyl hydrogen ({[(2S,3S)-2-{[(4-bromophenyl)carbamoyl]amino}-3-methylpentanoyl]amino}methyl)phosphonate] | nM (0.88) | 2.7
CCC1(CCc2ccccc2C(=O)O)NC(=O)N(NC(=O)Nc2ccc(Br)cc2F)C1=O (centres unmarked) [Compound 146, 2-[2-(1-{[(4-bromo-2-fluorophenyl)carbamoyl]amino}-4-ethyl-2,5-dioxoimidazolidin-4-yl)ethyl]benzoic acid] | nM (1.0) | 11.1
CCOP(=O)(CCNC(=O)[C@H](CC(C)C)NC(=O)Nc1ccc(Br)cc1)OCC [Compound 119, diethyl (2-{[(2S)-2-{[(4-bromophenyl)carbamoyl]amino}-4-methylpentanoyl]amino}ethyl) phosphonate] | – | 16.1
CC1(CCc2ccc(O)cc2)NC(=O)N(NC(=O)Nc2ccc(Br)cc2F)C1=O (centres unmarked) [Compound 89, 1-(4-bromo-2-fluorophenyl)-3-{4-[2-(4-hydroxyphenyl)ethyl]-4-methyl-2,5-dioxoimidazolidin-1-yl}urea] | nM (0.85) | –
CC[C@H](C)[C@H](NC(=O)Nc1ccc(Br)cc1F)C(=O)NCC(=O)O [Compound 59, {[(2S,3S)-2-{[(4-bromo-2-fluorophenyl)carbamoyl]amino}-3-methylpentanoyl]amino}acetic acid] | nM (0.95) | –
CC(C)C[C@H](NC(=O)Nc1ccc(I)cc1)C(=O)O [Compound 121, (2S)-2-{[(4-iodophenyl)carbamoyl]amino}-4-methylpentanoic acid] | nM (0.93) | 4
CCC[C@H](NC(=O)Nc1ccc(Br)cc1)C(=O)NCP(=O)(OCC)OCC [Compound 117, diethyl ({[(2S)-2-{[(4-bromophenyl)carbamoyl]amino}pentanoyl]amino}methyl) phosphonate] | nM (1.0) | 0.27
CSc1ccc(NC(=O)Nc2ccc3c(c2)C(=O)N(CCc2c[nH]cn2)C(c2ccc(Cl)o2)C3)cc1 (centres unmarked) [Compound 27, 1-{3-(5-chlorofuran-2-yl)-2-[2-(1H-imidazol-4-yl)ethyl]-1-oxo-1,2,3,4-tetrahydroisoquinolin-7-yl}-3-[4-(methylsulfanyl)phenyl]urea] | nM (0.81) | –
CCC1(C(C)C)NC(=O)N(NC(=O)Nc2ccc(Br)cc2)C1=O (single isomer, unassigned; (-)) [Compound 67, (−)1-(4-bromophenyl)-3-[4-ethyl-2,5-dioxo-4-(propan-2-yl)imidazolidin-1-yl]urea] | nM (1.0) | –
CC1(CCc2ccccc2O)NC(=O)N(NC(=O)Nc2ccc(Br)cc2F)C1=O (centres unmarked) [Compound 106, 1-(4-bromo-2-fluorophenyl)-3-{4-[2-(2-hydroxyphenyl)ethyl]-4-methyl-2,5-dioxoimidazolidin-1-yl}urea] | nM (0.91) | 4
CC(C)C[C@H](NC(=O)Nc1ccc(Br)cc1)C(=O)NCC(N)=O [Compound 77, (2S)-N-(2-amino-2-oxoethyl)-2-{[(4-bromophenyl)carbamoyl]amino}-4-methylpentanamide] | nM (1.0) | 1.1

More lines, now with the values ahead:

FPR2 (efficacy) | EC50 [nM] | SMILES
nM (0.97) | – | CC1(C)C2CCC1C(C(=O)Nc1ccc(I)cc1)C2C(=O)O (centres unmarked) [Compound 22, 3-[(4-iodophenyl)carbamoyl]-7,7-dimethylbicyclo[2.2.1]heptane-2-carboxylic acid]
nM (0.92) | 5.5 | CSc1ccc(NC(=O)Nc2ccc3c(c2)C(=O)N(CCc2c[nH]cn2)C(c2ccc(C#N)cc2)C3)cc1 (centres unmarked) [Compound 17, 1-{3-(4-cyanophenyl)-2-[2-(1H-imidazol-4-yl)ethyl]-1-oxo-1,2,3,4-tetrahydroisoquinolin-7-yl}-3-[4-(methylsulfanyl)phenyl]urea]
μM (0.59) | – | CCC(C)[C@@H](NC(=O)Nc1ccc(Br)cc1)C(=O)O (stereo in doubt) [Compound 122, (2R,3R)-2-{[(4-bromophenyl)carbamoyl]amino}-3-methylpentanoic acid]
nM (1.0) | 5.8 | CC(C)C1(CCc2ccccc2C(=O)O)NC(=O)N(NC(=O)Nc2ccc(Br)cc2)C1=O (centres unmarked) [Compound 151, 2-{2-[1-{[(4-bromophenyl)carbamoyl]amino}-2,5-dioxo-4-(propan-2-yl)imidazolidin-4-yl]ethyl}benzoic acid]
nM (0.94) | – | CC(C)=C1C2C=CC1C(C(=O)Nc1ccc(I)cc1)C2C(=O)O (centres unmarked) [Compound 20, 3-[(4-iodophenyl)carbamoyl]-7-(propan-2-ylidene)bicyclo[2.2.1]hept-5-ene-2-carboxylic acid]
nM (0.86) | 16.2 | CC(C)C1(CO)NC(=O)N(NC(=O)Nc2ccc(Br)cc2)C1=O (centres unmarked) [Compound 132, 1-(4-bromophenyl)-3-[4-(hydroxymethyl)-2,5-dioxo-4-(propan-2-yl)imidazolidin-1-yl]urea]
nM (0.87) | 0.6 | O=C(O)C1C(C(=O)Nc2ccc(I)cc2)C2CCC1C21CC1 (centres unmarked) [Compound 15, 3-[(4-iodophenyl)carbamoyl] spiro[bicyclo[2.2.1]heptane-7,1′-cyclopropane]-2-carboxylic acid]
nM (1.0) | 9.3 | CCNC(=O)C1C(C(=O)Nc2ccc(Br)cc2)C2CCC1C21CC1 (centres unmarked) [Compound 47, N-(4-bromophenyl)-N′-ethylspiro[bicyclo[2.2.1]heptane-7,1′-cyclopropane]-2,3-dicarboxamide]
nM (1.0) | 1 | CC(C)C[C@H](NC(=O)Nc1ccc(Br)cc1)C(=O)N(C)CC(=O)O [Compound 155, {[(2S)-2-{[(4-bromophenyl)carbamoyl]amino}-4-methylpentanoyl](methyl)amino} acetic acid]
nM (1.0) | 14.5 | CCC[C@H](NC(=O)Nc1ccc(Br)cc1)C(=O)NCC(=O)OC(C)C [Compound 73, propan-2-yl {[(2S)-2-{[(4-bromophenyl)carbamoyl]amino}pentanoyl]amino}acetate]
nM (0.96) | 3.7 | CC(C)C[C@H](NC(=O)Nc1ccc(C(F)(F)F)cc1)C(=O)NCc1nnn[nH]1 [Compound 136, (2S)-4-methyl-N-(1H-tetrazol-5-ylmethyl)-2-({[4-(trifluoromethyl)phenyl]carbamoyl}amino)pentanamide]
nM (0.85) | 12 | CC(C)C[C@H](NC(=O)Nc1ccc(Br)cc1)C(=O)N(C)CC(=O)OC(C)(C)C [Compound 154, tert-butyl {[(2S)-2-{[(4-bromophenyl)carbamoyl]amino}-4-methylpentanoyl](methyl)amino} acetate]
